# Results as given in US9371319B2, “Pyrrolopyridineamino derivatives as MPS1 inhibitors” (priority 2011, dated 2016).
# Target: T1, full length MPS1 (Homo sapiens, UniProt P33981)
# T1 sequence (P33981 1-857): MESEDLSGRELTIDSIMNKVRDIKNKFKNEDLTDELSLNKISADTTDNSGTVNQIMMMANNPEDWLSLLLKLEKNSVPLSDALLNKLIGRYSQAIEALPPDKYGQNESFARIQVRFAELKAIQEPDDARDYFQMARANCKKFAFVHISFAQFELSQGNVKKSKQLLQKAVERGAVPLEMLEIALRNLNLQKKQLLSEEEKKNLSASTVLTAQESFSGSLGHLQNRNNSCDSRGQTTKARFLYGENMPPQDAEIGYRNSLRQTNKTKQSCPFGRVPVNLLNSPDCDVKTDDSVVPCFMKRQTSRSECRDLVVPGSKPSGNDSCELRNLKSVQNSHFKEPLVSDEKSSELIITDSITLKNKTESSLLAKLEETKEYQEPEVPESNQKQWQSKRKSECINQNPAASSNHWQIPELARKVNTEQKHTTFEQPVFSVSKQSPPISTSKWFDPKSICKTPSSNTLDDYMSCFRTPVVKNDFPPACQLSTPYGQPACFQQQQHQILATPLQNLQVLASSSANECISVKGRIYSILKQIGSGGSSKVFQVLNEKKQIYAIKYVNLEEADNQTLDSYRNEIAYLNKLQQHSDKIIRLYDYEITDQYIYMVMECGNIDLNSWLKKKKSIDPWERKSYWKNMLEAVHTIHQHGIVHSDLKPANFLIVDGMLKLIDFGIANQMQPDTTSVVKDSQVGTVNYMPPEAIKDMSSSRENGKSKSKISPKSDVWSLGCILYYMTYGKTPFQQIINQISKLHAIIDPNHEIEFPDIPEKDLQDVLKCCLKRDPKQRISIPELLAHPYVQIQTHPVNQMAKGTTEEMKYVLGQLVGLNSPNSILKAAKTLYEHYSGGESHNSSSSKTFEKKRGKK
# Test: biochemical
row,IC50 [µM],Structure (SMILES)
1,0.055,"COc1cc(CN(C)C)ccc1Nc1cc2[nH]c(-c3cnn(C)c3)cc2cn1 [Example 139, N-(4-((dimethylamino)methyl)-2-methoxyphenyl)-2-(1-methyl-1H-pyrazol-4-yl)-1H-pyrrolo[3,2-c]pyridin-6-amine]"
2,0.004,"Cn1cc(-c2cc3cnc(Nc4ccc(-c5cncn5C)cc4Cl)cc3[nH]2)cn1 [Example 125, N-(2-Chloro-4-(1-methyl-1H-imidazol-5-yl)phenyl)-2-(1-methyl-1H-pyrazol-4-yl)-1H-pyrrolo[3,2-c]pyridin-6-amine]"
3,0.002,Cc1ncc(-c2ccc(Nc3cc4c(cn3)cc(-c3cnn(C)c3)n4C(=O)OC(C)C)cc2)n1C [Example 108]
4,0.343,Cc1cc(Cn2c(-c3cnn(C)c3)cc3cnc(Nc4ccc(C(=O)N(C)C)cc4Cl)cc32)no1 [Example 90]
5,4.88,Cn1cc(-c2cc3cnc(Nc4ccccc4Cl)cc3n2CC2CCCCC2)cn1 [Example 67]
6,0.132,"Cn1cc(-c2cc3cnc(Nc4cccc(OCC#N)c4)cc3[nH]2)cn1 [Example 141, 2-(3-(2-(1-Methyl-1H-pyrazol-4-yl)-1H-pyrrolo[3,2-c]pyridin-6-ylamino)phenoxy)acetonitrile]"
7,0.08,"CC(=O)N1CCN(c2ccc(Nc3cc4[nH]c(-c5cn[nH]c5)cc4cn3)cc2)CC1 [Example 169, 1-(4-(4-(2-(1H-Pyrazol-4-yl)-1H-pyrrolo[3,2-c]pyridin-6-ylamino)phenyl)piperazin-1-yl)ethanone]"
8,0.027,"CNC(=O)c1ccc(Nc2cc3[nH]c(-c4cnn(C)c4)cc3cn2)c(OC)c1 [Example 133, 3-Methoxy-N-methyl-4-(2-(1-methyl-1H-pyrazol-4-yl)-1H-pyrrolo[3,2-c]pyridin-6-ylamino)benzamide]"
9,0.002,Cc1ncc(-c2ccc(Nc3cc4c(cn3)cc(-c3cnn(C)c3)n4C(=O)OC3CCCC3)c(Cl)c2)n1C [Example 84]
10,0.052,"Cn1cc(-c2cc3cnc(Nc4ccc(-c5ccn(C)n5)cc4Cl)cc3[nH]2)cn1 [Example 124, N-(2-Chloro-4-(1-methyl-1H-pyrazol-3-yl)phenyl)-2-(1-methyl-1H-pyrazol-4-yl)-1H-pyrrolo[3,2-c]pyridin-6-amine]"
11,0.421,"Cn1cc(-c2[nH]c3cc(Nc4ccccc4Cl)ncc3c2Cl)cn1 [Example 193, 3-Chloro-N-(2-chlorophenyl)-2-(1-methyl-1H-pyrazol-4-yl)-1H-pyrrolo[3,2-c]pyridin-6-amine]"
12,0.005,"Cn1cncc1-c1ccc(Nc2cc3[nH]c(-c4cnco4)cc3cn2)c(Cl)c1 [Example 185, N-(2-Chloro-4-(1-methyl-1H-imidazol-5-yl)phenyl)-2-(oxazol-5-yl)-1H-pyrrolo[3,2-c]pyridin-6-amine]"
13,0.083,COCCn1c(-c2cnn(C)c2)cc2cnc(Nc3ccc(-c4cnc(C)n4C)cc3Cl)cc21 [Example 104]

# Further lines, the molecule ahead of its results:
row,Structure (SMILES),IC50 [µM]
1,Cn1cc(-c2cc3cnc(Nc4ccc(C(=O)N5CCCC5)cc4Cl)cc3n2C(=O)OC(C)(C)C)cn1 [Example 40],0.004
2,Cc1c(-c2ccc(Nc3cc4c(cn3)cc(-c3cnn(C)c3)n4C(=O)OC(C)(C)C)c(Cl)c2)cnn1C [Example 20],0.007
3,"CN(C)C(=O)c1ccc(Nc2cc3c(cn2)cc(-c2cnn(C)c2)n3S(=O)(=O)C2CCCC2)c(Cl)c1 [Example 110, 3-Chloro-4-(1-(cyclopentylsulfonyl)-2-(1-methyl-1H-pyrazol-4-yl)-1H-pyrrolo[3,2-c]pyridin-6-ylamino)-N,N-dimethylbenzamide]",0.092
4,CN(C)C(=O)c1ccc(Nc2cc3c(cn2)cc(-c2cnn(C)c2)n3CC2CCCCC2)c(Cl)c1 [Example 71],0.067
5,Cc1ccc(-c2ccc(Nc3cc4c(cn3)cc(-c3cnn(C)c3)n4C(=O)OC(C)(C)C)c(Cl)c2)cn1 [Example 49],0.009
6,COC1CN(C(=O)c2ccc(Nc3cc4c(cn3)cc(-c3cnn(C)c3)n4C(=O)OC(C)(C)C)c(Cl)c2)C1 [Example 37],0.008
7,Cc1ncc(-c2ccc(Nc3cc4c(cn3)cc(-c3cnn(C)c3)n4C(=O)OC(C)(C)C)c(Cl)c2)n1C [Example 47],0.005
8,COc1cc(CN2CCCC2)ccc1Nc1cc2c(cn1)cc(-c1cnn(C)c1)n2C(=O)OC(C)(C)C [Example 33],0.016
9,COc1cc(C(=O)N2CC(OC)C2)ccc1Nc1cc2c(cn1)cc(-c1cnco1)n2C(=O)OC(C)(C)C [Example 97],0.01
